Results from patent EP0606463B1, “NEUROMEDIN B RECEPTOR ANTAGONISTS” (The Administrators of The Tulane Educational Fund, priority 1992, dated 1994).
Where a SMILES comes first, the peptide text is derived from it. Bridges are numbered along the chain shown (N, C = ends). [ ]: non-standard residue; d: D form. 2Nal = N[C@@H](Cc1ccc2ccccc2c1)C(=O)O; d2Nal = N[C@H](Cc1ccc2ccccc2c1)C(=O)O

Biological target: T1, NMB Receptor (Rattus norvegicus, UniProt P24053)
T1 construct: a full length NMB-preferring bombesin receptor clone generated from rat esophagus; expressed in transfected cells; host or cells: BALB 3T3 cells
T1 sequence (P24053 1-390): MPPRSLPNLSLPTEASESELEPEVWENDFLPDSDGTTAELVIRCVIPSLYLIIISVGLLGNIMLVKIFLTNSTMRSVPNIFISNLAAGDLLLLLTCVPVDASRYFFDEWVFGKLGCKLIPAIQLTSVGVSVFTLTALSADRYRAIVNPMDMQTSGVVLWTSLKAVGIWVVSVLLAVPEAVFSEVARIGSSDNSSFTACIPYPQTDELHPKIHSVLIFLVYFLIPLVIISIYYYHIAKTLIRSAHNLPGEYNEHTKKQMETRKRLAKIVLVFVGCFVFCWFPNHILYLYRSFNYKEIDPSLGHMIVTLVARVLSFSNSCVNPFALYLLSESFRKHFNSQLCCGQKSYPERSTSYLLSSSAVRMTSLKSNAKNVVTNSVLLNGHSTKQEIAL
Experiment: [3H]inositol phosphates (IP) in NMB-R transfected cells
Format: cell-based
Method in brief: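 BALB 3T3 cells stably expressing rat NMB receptor, labelled 48 h with myo-[2-3H]inositol, then 60 min at 37°C in LiCl-containing buffer with agonists, or with 3 nM NMB plus antagonists. Total [3H]IP isolated by anion-exchange chromatography.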

CC(C)[C@@H]1NC(=O)[C@H](CCCCN)NC(=O)[C@@H](Cc2c[nH]c3ccccc23)NC(=O)[C@H](Cc2ccc(O)cc2)NC(=O)[C@@H](NC(=O)[C@H](N)Cc2ccc3ccccc3c2)CSSC[C@@H](C(=O)N[C@@H](Cc2ccc3ccccc3c2)C(N)=O)NC1=O [Analog #1, D-Nal-Cys-Tyr-D-Trp-Lys-Val-Cys-Nal-NH2] (H-[d2Nal]CY[dW]KVC[2Nal]-NH2; disulfide 2-7; N-terminus assumed)
regression slope of Schild plot (1, 3 or 10 µM cyclo SS-octa on NMB dose-response curve): 1.1(+0.2)
complete inhibition of NMB-stimulated increases in [^3H]IP at (NMB-R transfected cells): 10 µM
detectible inhibition of NMB-stimulated increases in [^3H]IP at (NMB-R transfected cells): 0.3 µM
effect on NMB-stimulated increase in [^3H]IP (NMB-R transfected cells, 3 nM NMB, peptide 10 µM): completely inhibited
NMB-R Transfected Cells [^3H]IP Alone (10 µ M) (analog 10 µM alone, no-additive control 13 ± 3): 12 ± 2 dpm x 10^3
NMB-R Transfected Cells [^3H]IP Plus NMB (3 nM) (analog 10 µM plus NMB 3 nM, NMB without analog 186 ± 58): 8 ± 4 dpm x 10^3
Kd (rightward shift of NMB dose-response curve, NMB-R transfected cells, read-out: affinity for the NMB receptor from Schild plot): 0.231 ± 0.043 µM
